One experiment has as its system IL-23, THP1 cells. In words: IL-23 assay, THP1 cells primed with IFNg, LPS stimulated, ELISA. Format: cell-based. The note with it: Homo sapiens, THP-1. The procedure:
(§1) IL-23 assays: THP1 cells or human primary monocyte-derived dendritic cells (DC) were primed overnight with IFNg. Following one hour preincubation with compound, cells were stimulated overnight with LPS. IL-23 released into the media was quantitated by ELISA.
Background: In an ELISA, binding on a coated surface is turned into a signal by an enzyme label.

The next experiment relates to IL-23, dendritic cells. In words: IL-23 assay, human primary monocyte-derived dendritic cells, LPS stimulated, ELISA. Format: cell-based. Conditions: Dendritic cell, LPS stimulated, 10 pt, read-out: IL23-P19, ELISA, Dendritic, LPS, 10 pt. The procedure: as §1
A further experiment deals with T1, IRAK4 (Homo sapiens, UniProt Q9NWZ3).
T1 sequence (Q9NWZ3 1-460): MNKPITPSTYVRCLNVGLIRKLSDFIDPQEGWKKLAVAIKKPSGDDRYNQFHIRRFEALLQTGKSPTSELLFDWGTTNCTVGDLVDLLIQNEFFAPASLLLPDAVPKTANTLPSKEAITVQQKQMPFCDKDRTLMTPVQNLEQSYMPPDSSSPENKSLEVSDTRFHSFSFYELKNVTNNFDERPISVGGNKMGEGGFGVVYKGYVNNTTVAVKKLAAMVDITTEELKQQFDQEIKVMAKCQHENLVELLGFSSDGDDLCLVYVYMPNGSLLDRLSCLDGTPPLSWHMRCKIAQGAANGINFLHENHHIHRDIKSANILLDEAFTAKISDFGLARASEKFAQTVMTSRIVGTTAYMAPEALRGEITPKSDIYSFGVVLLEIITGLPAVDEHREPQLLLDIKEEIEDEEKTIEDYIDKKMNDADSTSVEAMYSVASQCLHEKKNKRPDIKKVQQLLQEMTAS
In words: IRAK4 biochemical assay, ADP-Glo kinase assay. The note with it: for Selectivity (TAK1/IRAK4): ratio of TAK1 and IRAK4 IC50. The procedure: (§2) IRAK4 and TAK1 biochemical assays: kinase activity was measured by ADP-Glo kinase assay (Promega).
(ADP-Glo first removes unused ATP, then detects ADP through luciferase.)

For a further experiment, the target named is T2, TAK1 (Homo sapiens, UniProt O43318).
T2 sequence (O43318 1-303 limits assumed): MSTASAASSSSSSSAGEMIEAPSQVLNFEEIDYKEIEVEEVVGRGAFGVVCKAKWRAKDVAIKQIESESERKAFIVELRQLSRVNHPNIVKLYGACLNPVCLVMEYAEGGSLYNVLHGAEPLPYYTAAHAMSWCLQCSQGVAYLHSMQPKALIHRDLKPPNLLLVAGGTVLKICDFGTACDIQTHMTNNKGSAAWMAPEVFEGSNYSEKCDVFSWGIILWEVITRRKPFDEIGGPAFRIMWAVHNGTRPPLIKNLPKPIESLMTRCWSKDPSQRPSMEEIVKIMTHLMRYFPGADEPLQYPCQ
In words: TAK1 biochemical assay, ADP-Glo kinase assay. The procedure: as §2

Where [1] appears, read: THP1 cells, IFNy primed, LPS stimulated, 10 pt, read-out: IL23-p19 ELISA, THP1-IFNy, LPS, 10 pt.
[2] abbreviates: read-out: IL23 (LPS induced) IC50.

pIC50: −log10 of the molar value. Like-named read-outs stand apart in the source and are kept apart here. Some results are limits rather than exact numbers.

`Cc1cc(Nc2ncc(-c3cccnc3)c(NC3C4C=CC(C4)C3C(N)=O)n2)ccc1OCCN1CCCC1` (stereo not shown) [Compound 1, 3-((2-((3-methyl-4-(2-(pyrrolidin-1-yl)ethoxy)phenyl)amino)-5-(pyridin-3-yl)pyrimidin-4-yl)amino)bicyclo[2.2.1] hept-5-ene-2-carboxamide]: the pIC50 in the experiment on IL-23, THP1 cells (setting [1]) is > 7.00; in the experiment with IL-23, dendritic cells, > 6.60.

As to `NC(=O)[C@@H]1[C@H](Nc2nc(Nc3ccc(OCCN4CCCC4)cc3)ncc2-c2cccnc2)[C@H]2C=C[C@@H]1C2` [Compound 2], the pIC50 with IL-23, THP1 cells (setting [1]) is > 6.00.

Take `CS(=O)(=O)N1CCN(c2ccc(Nc3ncc(-c4cccnc4)c(N[C@@H]4C5C=CC(C5)[C@@H]4C(N)=O)n3)cc2F)CC1` (stereo partly drawn) [Compound 3, (2S,3R)-3-((2-((3-fluoro-4-(4-(methylsulfonyl)piperazin-1-yl)phenyl)amino)-5-(pyridin-3-yl)pyrimidin-4-yl)amino)bicyclo[2.2.1] hept-5-ene-2-carboxamide]: the pIC50 in the experiment with IL-23, THP1 cells (setting [1]) is > 6.00.

On to `NC(=O)[C@@H]1[C@H](Nc2nc(Nc3cccc(C(=O)N4CCCC4)c3)ncc2-c2cccnc2)[C@H]2C=C[C@@H]1C2` [Compound 4, (1S,2S,3R,4R)-3-((5-(pyridin-3-yl)-2-((3-(pyrrolidine-1-carbonyl)phenyl)amino)pyrimidin-4-yl)amino)bicyclo[2.2.1] hept-5-ene-2-carboxamide], for which the pIC50 at IRAK4 was 8.00; against TAK1, 6.64; with IL-23, THP1 cells (setting [1]), > 6.00; in the experiment with IL-23, THP1 cells (setting [2]) it was 6.49.

As to `Cc1cnc(Nc2cccc(C(=O)N3CCCC3)c2)nc1N[C@H]1[C@@H](C(N)=O)[C@@H]2C=C[C@H]1C2` [Compound 5, (1S,2S,3R,4R)-3-((5-methyl-2-((3-(pyrrolidine-1-carbonyl)phenyl)amino)pyrimidin-4-yl)amino)bicyclo[2.2.1] hept-5-ene-2-carboxamide], the pIC50 was 8.52 against IRAK4; 8.10 against TAK1; > 7.00 in the experiment with IL-23, THP1 cells (setting [1]); 7.00 in the experiment on IL-23, THP1 cells (setting [2]).

As for `NC(=O)[C@@H]1[C@H](Nc2nc(Nc3cccc(C(=O)N4CCCC4)c3)ncc2C2CC2)[C@H]2C=C[C@@H]1C2` [Compound 6, (1S,2S,3R,4R)-3-((5-cyclopropyl-2-((3-(pyrrolidine-1-carbonyl)phenyl)amino)pyrimidin-4-yl)amino)bicyclo[2.2.1] hept-5-ene-2-carboxamide], the pIC50 on IRAK4 was 8.22; against TAK1, 7.96; with IL-23, THP1 cells (setting [1]), > 7.00; with IL-23, THP1 cells (setting [2]) it was 7.05; with IL-23, dendritic cells it was > 7.00.

Turning to `NC(=O)[C@@H]1[C@H](Nc2nc(Nc3cccc(C(=O)N4CCCC4)c3)ncc2-c2ccoc2)[C@H]2C=C[C@@H]1C2` [Compound 7, (1S,2S,3R,4R)-3-((5-(furan-3-yl)-2-((3-(pyrrolidine-1-carbonyl)phenyl)amino)pyrimidin-4-yl)amino)bicyclo[2.2.1] hept-5-ene-2-carboxamide], the pIC50 against IRAK4 was 8.70; at TAK1 it was 7.96; in the experiment on IL-23, THP1 cells (setting [1]), > 7.00; with IL-23, THP1 cells (setting [2]), 7.40; in the experiment on IL-23, dendritic cells, > 7.00.

For the compound `NC(=O)[C@@H]1[C@H](Nc2nc(Nc3cccc(C(=O)N4CCCC4)c3)ncc2-c2ccccc2)[C@H]2C=C[C@@H]1C2` [Compound 8, (1S,2S,3R,4R)-3-((5-phenyl-2-((3 (pyrrolidine-1-carbonyl)phenyl)amino)pyrimidin-4-yl)amino)bicyclo[2.2.1] hept-5-ene-2-carboxamide], the pIC50 is 8.00 against IRAK4; 6.78 against TAK1; > 6.60 in the experiment on IL-23, THP1 cells (setting [1]); 6.66 in the experiment with IL-23, THP1 cells (setting [2]); > 6.00 in the experiment with IL-23, dendritic cells.

Regarding `NC(=O)[C@@H]1[C@H](Nc2nc(Nc3cccc(C(=O)N4CCCC4)c3)ncc2-c2ccncc2)[C@H]2C=C[C@@H]1C2` [Compound 9, (1S,2S,3R,4R)-3-((5-(pyridin-4-yl)-2-((3-(pyrrolidine-1-carbonyl)phenyl)amino)pyrimidin-4-yl)amino)bicyclo[2.2.1] hept-5-ene-2-carboxamide], the pIC50 was 8.40 on IRAK4; 7.62 on TAK1; > 6.60 in the experiment with IL-23, THP1 cells (setting [1]); 6.89 in the experiment with IL-23, THP1 cells (setting [2]); > 6.60 with IL-23, dendritic cells. Besides, the “Selectivity (TAK1/IRAK4)” value at IRAK4 was 7.

Consider `NC(=O)[C@@H]1[C@H](Nc2nc(Nc3cccc(C(=O)N4CCCC4)c3)ncc2-c2ccccc2F)[C@H]2C=C[C@@H]1C2` [Compound 10, (1S,2S,3R,4R)-3-((5-(2-fluorophenyl)-2-((3-(pyrrolidine-1-carbonyl)phenyl)amino)pyrimidin-4-yl)amino)bicyclo[2.2.1] hept-5-ene-2-carboxamide], for which the pIC50 at IRAK4 is 7.96; against TAK1 it was 5.32; in the experiment with IL-23, THP1 cells (setting [1]) it was > 6.00; in the experiment with IL-23, THP1 cells (setting [2]) it was 6.06. Moreover, the IRAK4/TAK1 selectivity on IRAK4 is reported as 434. Moreover, the “Selectivity (TAK1/IRAK4)” value on IRAK4 worked out at 434.

Consider `NC(=O)[C@@H]1[C@H](Nc2nc(Nc3cccc(C(=O)N4CCCC4)c3)ncc2-c2ccc(F)cc2)[C@H]2C=C[C@@H]1C2` [Compound 12, (1S,2S,3R,4R)-3-((5-(4-fluorophenyl)-2-((3 (pyrrolidine-1-carbonyl)phenyl)amino)pyrimidin-4-yl)amino)bicyclo[2.2.1] hept-5-ene-2-carboxamide], for which the pIC50 at IRAK4 was 7.72; at TAK1, 6.17; in the experiment on IL-23, THP1 cells (setting [1]), > 6.00; with IL-23, THP1 cells (setting [2]), 6.34; with IL-23, dendritic cells it was < 6.00.

For the compound `N#Cc1cccc(-c2cnc(Nc3cccc(C(=O)N4CCCC4)c3)nc2N[C@H]2[C@@H](C(N)=O)[C@@H]3C=C[C@H]2C3)c1` [Compound 13, (1S,2S,3R,4R)-3-((5-(3-cyanophenyl)-2-((3-(pyrrolidine-1-carbonyl)phenyl)amino)pyrimidin-4-yl)amino)bicyclo[2.2.1] hept-5-ene-2-carboxamide], the pIC50 at IRAK4 is 7.89; at TAK1 it was 6.98; in the experiment on IL-23, THP1 cells (setting [1]), > 6.00; with IL-23, THP1 cells (setting [2]), 6.55; in the experiment with IL-23, dendritic cells, > 6.00.

As for `N#Cc1ccc(-c2cnc(Nc3cccc(C(=O)N4CCCC4)c3)nc2N[C@H]2[C@@H](C(N)=O)[C@@H]3C=C[C@H]2C3)cc1` [Compound 14, (1S,2S,3R,4R)-3-((5-(4-cyanophenyl)-2-((3-(pyrrolidine-1-carbonyl)phenyl)amino)pyrimidin-4-yl)amino)bicyclo[2.2.1] hept-5-ene-2-carboxamide], the pIC50 on IRAK4 was 8.05; against TAK1, 5.80; in the experiment on IL-23, THP1 cells (setting [1]), > 6.60; with IL-23, THP1 cells (setting [2]), 6.72; in the experiment on IL-23, dendritic cells, > 6.00.

For `N#Cc1cccc(-c2cnc(Nc3cccc(C(=O)N4CCCC4)c3)nc2N[C@@H]2CCCC[C@@H]2C(N)=O)c1` [Compound 17, (1S,2R)-2-((5-(3-cyanophenyl)-2-((3-(pyrrolidine-1-carbonyl)phenyl)amino)pyrimidin-4-yl)amino)cyclohexane-1-carboxamide], the pIC50 was 7.52 against IRAK4; 7.17 at TAK1; > 6.00 with IL-23, THP1 cells (setting [1]); 6.05 in the experiment on IL-23, THP1 cells (setting [2]). The “Selectivity (TAK1/IRAK4)” value on IRAK4 worked out at 2.

In the case of `N#Cc1cccc(-c2cnc(Nc3cccc(C(=O)N4CCCC4)c3)nc2N[C@H]2[C@@H](C#N)[C@@H]3C=C[C@H]2C3)c1` [Compound 18, (1S,2S,3R,4R)-3-((5-(3-cyanophenyl)-2-((3-(pyrrolidine-1-carbonyl)phenyl)amino)pyrimidin-4-yl)amino)bicyclo[2.2.1] hept-5-ene-2-carbonitrile], the pIC50 against IRAK4 is 5.43; at TAK1 it was 3.88; in the experiment on IL-23, THP1 cells (setting [1]), < 6.00; with IL-23, THP1 cells (setting [2]) it was 5.47. The “Selectivity (TAK1/IRAK4)” value at IRAK4 worked out at 36.

(Values after patent US11524955B2, “2,4-diamino-pyrimidine compounds and method for making and using the compounds” (Rigel Pharmaceuticals, Inc., priority 2016, dated 2022).)
